pIC50: −log10 of the molar value. Values joined by “and” are separate entries in the source; they are usually repeats but may differ in a detail not shown here. Equal entries are not always repeated. “Also recorded” adds a separate entry of the source. Where two headings read alike, the source gives them in different places.
Assays:
human neutrophils [1] = experiment: Oxygen consumption (oxidative burst) of human neutrophils; assay type: cell-based; settings: for pIC50: oxidative burst, PMA activation, read-out: Concentration required for 50% inhibition
Text: Human neutrophils were obtained by continuous flow leukapheresis from normal adults. Residual erythrocytes were removed by hypotonic lysis with a resulting purity of >95% neutrophils. Alternatively peripheral blood was obtained by phlebotomy and neutrophils were isolated by HESPAN (6% Hetastarch, 0.9% NaCl) sedimentaion of erythrocytes, centrifugation through lymphocyte separation medium (9.4% sodium diatrizoate, 6.2% Ficoll), and hypotonic lysis of residual erythrocytes. Isolated cells were resuspended in phosphate buffered saline (PBS)-glucose, containing 0.6 mM CaCl2, 2.6 mM KCl, 1.5 mM KH2 PO4, 0.5 mM MgCl2, 136 mM NaCl, 8 mM Na2 HPO4, 5.5 mM glucose.
Oxygen consumption was measured using a Clark-type electrode with YSI model 53 oxygen monitor. Assays were conducted at 37° C. with 6.5×10^6 cells per ml with a total volume of either 2.5 ml or 4 ml. Effectors were injected into the electrode chamber using a Hamilton syringe. Initial slopes after the addition of the stimuli were used for rate calculations. For activators with a lag prior to the onset of the oxidative burst, maximal rates following the lag were used.

HL-60 cells [2] = experiment: PMA-induced adherence (attachment) of HL-60 cells; assay type: cell-based, human
Method: (§1) Cells were centrifuged at 600 g for 3 min, and added at 1×10^5 cells per well in 12-well culture dishes. Medium, PMA, and long-chain bases (prepared as the 1:1 molar complex with fatty acid-free bovine serum albumin) at the indicated concentrations were added for a total volume of 2.0 ml. After the desired times, the cells in suspension were counted and checked for viability (trypan blue exclusion) with a hemacytometer. The attached cells were quantitated by measuring DNA content according to the method of West et al (Anal. Biochem., 147, 289-295, 1985) and by assaying for acid phosphatase according to the method of Schnyder (J. Exp. Med., 148, 434-445, 1978).

[3] = system: phorbol ester binding site (protein kinase C) of neutrophils; experiment: Cellular [3H]-phorbol dibutyrate binding in neutrophils; set-up: species or system human; settings: 50 μM; 15 min
Method: Neutrophils (1×10^8 cells/ml) were preincubated with the indicated concentration of sphinganine, palmitic acid, or ceramide for five minutes prior to the addition of 50 nM (final concentration) of [^3 H]-phorbol dibutyrate (specific activity of 8.3 Ci/mMole). The cells were incubated an additional 15 min. in a shaking waterbath at 37° C. The incubation mixtures were filtered using an Amicon filtration manifold model VFM-III and washed 5 times with 5 mls of ice-cold PBS-glucose. The filters were counted using a Beckman LS7000 scintillation counter.

protein kinase C = experiment: Triton X-100 mixed micellar assay for protein kinase C activity; assay type: biochemical, rat; settings: mixed micellar assay
Method: Protein kinase C was partially purified from rat brain as described by Hanrun et al (J. Biol. Chem., 260, 10043, 1985), which is hereby incorporated by reference.
Protein kinase C was assayed with Triton X-100 mixed micelles as described by Hanrun et al, (ibid.), Sphingosine was dried down with the lipid cofactors.

[4] = HL-60 cell growth and viability; assay type: cell-based, human; settings: human, hl-60 cells, 8 nM PMA, 24 h
Method: (§2) The HL-60 cells (obtained from the American Type Culture Collection, ATCC CCL240) were grown at 37° as a suspension culture in 175 cm^2 Nunc tissue culture flasks (Vangard International, Neptune, N.J.). The cells were subcultured at a density of 0.25×10^6 cells/ml and used between passage numbers 30 and 40.
as §1

HL-60 cells [5] = experiment: HL-60 cell growth and viability; assay type: cell-based, human; settings: Homo sapiens, HL-60, 24 h, read-out: inhibition of growth of HL-60 cells
Method: as §2, §1

HL-60 cells [6] = experiment: Acid phosphatase activities of suspended and attached HL-60 cells; assay type: cell-based, human; settings: 8 nM PMA, 0 μM sphinganine
Method: as §1

human neutrophils [7] = experiment: [32P]-phosphate incorporation into TCA-precipitable material of neutrophils; assay type: cell-based; settings: PMA (1 μM)
Method: Neutrophils (1.4×10^8 cells) were preincubated in with 0.5 mCi Na2 H^32 PO4 in buffer containing […] NaCl, 5.56 mM glucose, 10 mM Hepes, and 0.33 mM CaCl2 for a total of 1 hr at 37° C. in a shaking waterbath. Excess unbound counts were removed by centrifugation and resuspension, repeated five times. The cells were then divided into 4 treatment groups (see RESULTS below) containing approximately 3.5×10^7 cells each. All groups were incubated at 37° C. in a shaking waterbath for the same total time. Some samples were incubated 10 min. with sphinganine (40 μM) prior to addition of 1 μM PMA (final concentration), with which they were incubated for an additional 15 min. The reaction was stopped by addition of an equal volume of boiling SDS dissociation buffer (9% SDS, 1% mercaptoethanol, 15% glycerol, 30 mM Tris, pH 7.8). The samples were run on a 12% SDS-polyacrylamide gel using the method of Rudolph and Krueger (Adv. Cyclic Nucleotide Res. 101, 107-133, 1979). The gels were dried using a Bio-Rad model 2400 Gel Slab Dryer. Autoradiography was performed on the dried gels using Kodak X-omat X-ray film and Dupont Cronex intensifying screens. The gels were exposed for 12 hrs at -70° C.
Alternatively, neutrophils were preincubated as described above using 0.1 mCi of ^32 P labeled phosphate. The cells were broken by 5 min. of sonication using an Ultramet III waterbath sonicator, and 5% (final concentration) trichloroacetic acid was added to each sample. […] The precipitate was filtered and washed extensively using an Amicon filtration system and counted using a Beckman LS7000 scintillation counter.

HL-60 cells [8] = experiment: Morphology and marker enzymes (ANA esterase, acid phosphatase) of HL-60 cells on day 3; assay type: cell-based, human; settings: 8 nM PMA, 0 μM sphinganine, 3 days
Text: Expression of most other signs of HL-60 cell differentiation requires longer time periods after treatment with PMA. For these experiments, the cells were examined on day 3 for adherence and acid phosphatase activity (Table IV) and morphology and the marker enzymes alpha-naptholacetate (ANA) esterase and acid phosphatase (Table V).

human neutrophils [9] = settings: cited from earlier work

Compound: Ceramide
- pIC50 (human neutrophils [1]): < 4.00
- inhibition of PMA-induced attachment (HL-60 cells [2]; 8 nM PMA): not inhibitory
- displacement of [3H]-phorbol dibutyrate [3]: 18%
- inhibition of protein kinase C (specificity) (protein kinase C): did not activate or inhibit
- inhibition of protein kinase C (specificity) (protein kinase C; listed as ceramide): without effect; also recorded: not to be inhibitors

Compound: CCCCCCCCCCCCCCCC(=O)O [Palmitic acid, reference compound]
- pIC50 (human neutrophils [1]; Homo sapiens, Neutrophil): < 4.00
- displacement of [3H]-phorbol dibutyrate [3]: 3%

Compound: CCCCCCCCCCCCCC(=O)O[C@@H]1[C@@H](C)[C@@]2(O)[C@@H](C=C(CO)C[C@]3(O)C(=O)C(C)=C[C@@H]23)[C@@H]2C(C)(C)[C@]12OC(C)=O [PMA, Phorbol 12-myristate 13-acetate, reference compound]
- viability at 24 h, 0.008 µM ([4]; 0 μM sphinganine, read-out: Percent viability of suspended cells): 60%
- viability at 24 h, 0.008 µM ([4]; read-out: % Viability): 80%
- inhibition at 0.008 µM (HL-60 cells [5]): 70%
- RATE of oxygen consumption, NO SPHINGANINE (human neutrophils [1]; activator alone): 4.3 nmols O2 consumed/min/10^6 cells
- number of adherent cells (HL-60 cells [2]; 8 nM PMA alone, 24 h): 0.76 ×10^5
- Adherent cells (%) (HL-60 cells [2]; 8 nM PMA, 0 μM sphinganine, 72 h): 96%
- % Adherence (HL-60 cells [2]; 8 nM PMA, 24 h): 61% and 61.3 ± 1.0%
- Acid phosphatase activity, Adherent (HL-60 cells [6]; 24 h): 0.52 ± 0.01 nmol/h/dish
- Acid phosphatase activity, Suspended (HL-60 cells [6]; 24 h): 0.11 ± 0.05 nmol/h/dish
- Adherence (% of total) (HL-60 cells [6]; 24 h): 83 % of total
- Acid phosphatase activity, Adherent (HL-60 cells [6]; 72 h): 2.20 ± 0.09 nmol/h/dish
- Acid phosphatase activity, Adherent (%) (HL-60 cells [6]; 72 h): 98%
- Acid phosphatase activity, Suspended (HL-60 cells [6]; 72 h): 0.05 ± 0.01 nmol/h/dish
- [32P]-phosphate incorporation into TCA-precipitable material (human neutrophils [7]): 4912 COUNTS PER MINUTE
- Acid phosphatase (HL-60 cells [8]; adherent cells): 0.60 nmol/h/105 cells
- Acid phosphatase (HL-60 cells [8]; suspended cells): 0.30 nmol/h/105 cells

Compound: NCCNS(=O)(=O)c1cccc2cnccc12 [H-9]
- inhibition of the respiratory burst in human neutrophils (human neutrophils [9]): incapable of inhibiting

Compound: CC1CNCCN1S(=O)(=O)c1cccc2cnccc12 (stereo not shown) [H-7]
- inhibition of the respiratory burst in human neutrophils (human neutrophils [9]): incapable of inhibiting

From patent publication US4937232A, “Inhibition of protein kinase C by long-chain bases” (priority 1988, dated 1990)
